Assay results taken from patent publication US20240245791A1, “METHODS AND COMPOSITIONS FOR LOCALIZATION OF GROWTH FACTORS” (Arizona Board of Regents on Behalf of the University of …, priority 2021, published 2024).
Like-named read-outs stand apart in the source and are kept apart here.

Tests used:
[1] = system: collagen IV sites; details: unconjugated VEGF; limited to the number of collagen IV sites available; cited from earlier work
[2] = system: collagen IV; details: vs scrambled peptide control biotin-CBPi-QK; measured using Alexafluor 488 streptavidin
[3] = system: collagen IV; assay: binding assay to collagen IV of CBP-VEGF vs CBPi-VEGF, ELISA for VEGF121; details: vs scrambled peptide control CBPi-VEGF; measured using an ELISA for VEGF121
Procedure: The result is measured using an ELISA for VEGF121.

VEGF
share of VEGF added to a scaffold that will bind [1]: 5%

biotin-CQDSETRT-KLTWQELYQLKYKGI-COOH (SEQ ID NO: 16) [biotin-CBP-QK]
binding to collagen IV [2]: significantly greater than the scrambled control at all concentrations

B1: CBP-VEGF: VEGF121 protein conjugated by click chemistry to collagen binding protein CBP (CQDSETRTFY, SEQ ID NO: 1) (conjugate)
chain: APMAEGGGQNHHEVVKFMDVYQRSYCHPIETLVDIFQEYPDEIEYIFKPSCVPLMRCGGCCNDEGLECVPTEESNITMQIMRIKPHQGQHIGEMSFLQHNKCECRPKKDRARQEKCDKPRR
peptide: CQDSETRTFY
binding to collagen IV [3]: significantly greater than the scrambled control at all concentrations
